Results on one compound are retold here after patent publication US7833979B2, “Toxin peptide therapeutic agents” (Amgen Inc., priority 2005, dated 2010).

One data set has as its target Kv1.3 (Homo sapiens, UniProt P22001). Briefly: Whole cell patch clamp electrophysiology on HEK293 cells stably expressing human Kv1.3. The format is cell-based. The conditions noted are these: patch clamp electrophysiology. (In general: The patch-clamp technique gives a direct electrical read-out from membranes.)
Data set [1] has as its system IL-2 and IFNg production from anti-CD3 and anti-CD28 stimulated human PBMCs. Briefly: Inhibition of T cell cytokine production following anti-CD3 and anti-CD28 antibody stimulation of PBMCs. The format is cell-based. To be noted: 48 hours. On the procedure: Inhibition of T cell cytokine production following Anti-CD3 and anti-CD28 antibody stimulation of PBMCs. PBMCs were previously isolated from normal human donor Leukopheresis packs, purified by density gradient centrifugation (Ficoll Hypaque), and cryopreserved using INCELL Freezing Medium. PBMCs were thawed (95% viability), washed, and seeded (in RPMI complete medium containing serum replacement, PSG) at 2×10^5 cells per well into 96-well flat bottom plates. Cells were pre-incubated with serially diluted (100 nM-0.003 nM final) ShK[1-35], Fc-L10-ShK[1-35], or Fc control for 1 hour before the addition of aCD3 and aCD28 (2.5 ng/mL and 100 ng/mL respectively) in a final assay volume of […]. Supernatants were collected after 48 hours, and analyzed using the Meso Scale Discovery (MSD) SECTOR™ Imager 6000 (Meso Scale Discovery, Gaithersbury, Md.) to measure the IL-2 and IFNg protein levels by utilizing electrochemiluminescence (ECL). […] of supernatant was added to the MSD multi-spot 96-well plates (each well containing IL-2, TNFa, and IFNg capture antibodies). The plates were sealed and incubated at room temperature on a plate shaker for 1 hour. Then […] of Ruthenium-labeled detection antibodies (1 ug/ml final of IL-2, TNFα, and IFNγ in Antibody Dilution Buffer) and […] of 2×MSD Read Buffer were added. The plates were sealed, covered with tin foil, and incubated at room temperature on a plate shaker for 1 hour. The plates were then read on the SECTOR™ Imager 6000. […] (POC=Percent Of Control of response in the absence of inhibitor).

A short description of data set [2]: Intravenous pharmacokinetic study in rats, serum levels by Kv1.3 inhibition bioassay. The format is in vivo, Spraque Dawley rats. To be noted: single equal molar IV injection, 5% serum Test solutions. On the procedure: This dose represented equal molar amounts of these two molecules. The average weight of the rats was about 0.3 kg and two rats were used for each dose & molecule. At various times following IV injection, blood was drawn and about 0.1 ml of serum was collected. Serum samples were stored frozen at −80° C. until analysis.
Assay Plate preparation for electrophysiology. […] Before experiments, each sample was thawed at room temperature and an aliquot (70 to 80 μl) was transferred to a well in a 96-well polypropylene plate. In order to prepare the Assay Plate, several dilutions were made from the pharmacokinetic serum samples to give rise to Test Solutions. Dilutions of serum samples from the pharmacokinetic study were into 10% Phosphate Buffered Saline (PBS, with Ca^2+ and Mg^2+). […] Standard inhibition curves were also prepared in the Assay Plate.
Cell preparation for electrophysiology. CHO cells stably expressing the voltage-activated K^+ channel, Kv1.3 were plated in T-175 tissue culture flasks (at a density of 5×10^6) 2 days before experimentation and allowed to grow to around 95% confluence. Immediately prior to the experiment, the cells were washed with PBS and then detached with a 2 ml mixture (1:1 volume ratio) of trypsin (0.25%) and versene (1:5000) at 37° C. (for 3 minutes). […] The mean K^+ current amplitude was measured between 430 and 440 ms and the data were exported to a Microsoft Excel spreadsheet. The amplitude of the K^+ current in the presence of each concentration of the Test Solution or Standard was expressed as a percentage of the K^+ current in control conditions in the same well.
Standard inhibition curves were generated for each standard in various levels of rat serum and expressed as current percent of control (POC) versus log of nM concentration. […]
Beyond 48 hours, the level of drug falls outside the linear range of the Standard curve and is not calculated. […]

The test system of data set [3] is thapsigargin-induced IL-2 and IFN-g production in human whole blood. In words: Ex vivo human whole blood assay, thapsigargin-induced secretion of IL-2 and IFN-g. The format is cell-based. To be noted: two donors, 48 hours.
In data set [4] the test system is upregulation of CD40L and IL-2R on CD4+ T cells in human whole blood. Briefly: Ex vivo human whole blood assay, thapsigargin-induced cell surface CD40L and IL-2R on T cells (FACS). The conditions noted are these: 24 hours. The class given is cell-based.
For data set [5] the following is noted: cited from earlier work.

Chain of Kv1.3 (P22001 whole entry): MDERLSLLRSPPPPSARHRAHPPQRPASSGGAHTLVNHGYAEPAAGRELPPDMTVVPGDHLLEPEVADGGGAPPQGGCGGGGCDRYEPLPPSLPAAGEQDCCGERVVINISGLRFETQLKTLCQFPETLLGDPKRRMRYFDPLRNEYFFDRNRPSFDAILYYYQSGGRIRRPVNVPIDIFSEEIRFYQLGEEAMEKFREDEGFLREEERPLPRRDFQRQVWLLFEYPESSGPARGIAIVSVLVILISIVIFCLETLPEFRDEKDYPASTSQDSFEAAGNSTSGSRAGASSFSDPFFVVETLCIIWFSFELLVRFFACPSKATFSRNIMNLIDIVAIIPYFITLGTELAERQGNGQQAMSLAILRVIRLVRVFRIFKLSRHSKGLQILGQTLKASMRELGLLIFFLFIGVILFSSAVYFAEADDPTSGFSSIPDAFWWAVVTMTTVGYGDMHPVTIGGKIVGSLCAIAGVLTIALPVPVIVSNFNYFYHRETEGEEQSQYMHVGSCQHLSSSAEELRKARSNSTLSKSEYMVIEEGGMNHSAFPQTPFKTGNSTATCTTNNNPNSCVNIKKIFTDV

For the compound `CC[C@H](C)[C@@H]1NC(=O)[C@@H](NC(=O)[C@H](CO)NC(=O)[C@@H](N)CCCNC(=N)N)CSSC[C@@H](C(=O)O)NC(=O)[C@H]([C@@H](C)O)NC(=O)CNC(=O)[C@@H]2CSSC[C@@H]3NC(=O)[C@H](CCC(N)=O)NC(=O)[C@H](Cc4ccccc4)NC(=O)[C@H](C)NC(=O)[C@H]([C@@H](C)O)NC(=O)[C@H](CSSC[C@H](NC(=O)[C@H](Cc4ccccc4)NC(=O)[C@H](CO)NC(=O)[C@H](CC(C)C)NC(=O)[C@H](CCCNC(=N)N)NC(=O)[C@H](Cc4ccc(O)cc4)NC(=O)[C@H](CCCCN)NC(=O)[C@H](CCSC)NC(=O)[C@H](CO)NC(=O)[C@H](Cc4cnc[nH]4)NC(=O)[C@H](CCCCN)NC3=O)C(=O)N[C@@H](CCCNC(=N)N)C(=O)N[C@@H](CCCCN)C(=O)N[C@@H]([C@@H](C)O)C(=O)N2)NC(=O)[C@H](CCCNC(=N)N)NC(=O)[C@H](CO)NC(=O)[C@H](CCCCN)NC(=O)[C@@H]2CCCN2C(=O)[C@H]([C@@H](C)CC)NC(=O)[C@H]([C@@H](C)O)NC(=O)[C@H](CC(=O)O)NC1=O` [ShK[1-35], Stichodactyla helianthus neurotoxin, reference compound], the “Blockade of human Kv1.3 current (in words)” value on Kv1.3 is listed as “potently block Kv1.3”. Besides, in data set [1], the “Inhibition of IFNg production” value is reported as “only partial inhibtion” and the “Inhibition of IL-2 production” value was “only partial inhibtion”. Further, the “Time of significant suppression of Kv1.3 current (<70 POC) by serum” value in data set [2] was at most 1 h. Further, in data set [3], the “Thapsigargin-induced IFN-g production in human whole blood” value is “suppressed” and the “Thapsigargin-induced IL-2 production in human whole blood” value is “suppressed”. Moreover, the “Thapsigargin-induced IL-2 production in human whole blood” value in data set [3] (listed as ShK) is “potently blocked IL-2 secretion”. Moreover, in data set [4], the “Thapsigargin-induced upregulation of CD40L on T cells in human whole blood” value is reported as “suppressed” and the “Thapsigargin-induced upregulation of the IL-2R on T cells in human whole blood” value is reported as “suppressed”. For the same compound, the “Thapsigargin-induced upregulation of the IL-2R on T cells in human whole blood” value in data set [4] (listed as ShK) was “suppressing activation of the IL-2R”. Also, the “half-life in vivo of ShK” value in data set [5] was around 20 min. In addition, the “half-life of native ShK” value in data set [5] (in vivo) is reported as “approximately 0.33 hour”.
